Legend:
[1] = tested on: Aβtotal; assay: Method 2: Aβtotal Alphalisa on supernatant of SKNBE2 cells carrying APP 695 wild type; format: cell-based; conditions: Homo sapiens, SKNBE2 cells APP 695 wild type, overnight
Protocol: (§1) Screening was carried out using SKNBE2 cells carrying the APP 695—wild type, grown in Dulbecco's Modified Eagle's Medium/Nutrient mixture F-12 (DMEM/NUT-mix F-12) (HAM) provided by Invitrogen (cat no. 10371-029) containing 5% Serum/Fe supplemented with 1% non-essential amino acids, 1-glutamine 2 mM, Hepes 15 mM, penicillin 50 U/ml (units/ml) en streptomycin 50 μg/ml. Cells were grown to near confluency.
(§2) The screening was performed using a modification of the assay as described in Citron et al (1997) Nature Medicine 3: 67. Briefly, cells were plated in a 384-well plate at 10^4 cells/well in Ultraculture (Lonza, BE12-725F) supplemented with 1% glutamine (Invitrogen, 25030-024), 1% non-essential amino acid (NEAA), penicillin 50 U/ml en streptomycin 50 μg/ml in the presence of test compound at different test concentrations. The cell/compound mixture was incubated overnight at 37° C., 5% CO2, The next day the media were assayed by two sandwich immuno-assays, for Aβ42 and Aβtotal.
(§3) Aβtotal and Aβ42 concentrations were quantified in the cell supernatant using the Aphalisa technology (Perkin Elmer). Alphalisa is a sandwich assay using biotinylated antibody attached to streptavidin coated donorbeads and antibody conjugated to acceptor beads. In the presence of antigen, the beads come into close proximity. The excitation of the donor beads provokes the release of singlet oxygen molecules that trigger a cascade of energy transfer in the acceptor beads, resulting in light emission. To quantify the amount of Aβ42 in the cell supernatant, monoclonal antibody specific to the C-terminus of Aβ42 (JRF/cAβ42/26) was coupled to the receptor beads and biotinylated antibody specific to the N-terminus of AB (JRF/AβN/25) was used to react with the donor beads. To quantify the amount of Aβtotal in the cell supernatant, monoclonal antibody specific to the N-terminus of AB (JRF/AβN/25) was coupled to the receptor beads and biotinylated antibody specific to the mid region of Aβ (biotinylated 4G8) was used to react with the donor beads.
(§4) To obtain the values reported in Table 3b, the data were calculated as percentage of the maximum amount of amyloid Beta 42 measured in the absence of the test compound. The sigmoidal dose response curves were analyzed using non-linear regression analysis with percentage of the control plotted against the log concentration of the compound. A 4-parameter equation was used to determine the IC50.

[2] = tested on: Aβtotal; assay: Method 1: Aβtotal sandwich ELISA on media of SKNBE2 cells carrying APP 695 wild type; format: cell-based; conditions: Homo sapiens, SKNBE2 cells APP 695 wild type, 18 hours
Protocol: as §1, with “Gibco” for “Invitrogen”, “31330-38)” for “10371-029)”, “acids.” for “acids, 1-glutamine 2 mM, Hepes 15 mM, penicillin 50 U/ml (units/ml) en streptomycin 50 μg/ml.”
(§5) The screening was performed using the assay as described in Citron et al (1997) Nature Medicine 3: 67. Briefly, cells were plated in a 96-well plate at about 10^5 cells/ml one day prior to addition of compounds. Compounds were added to the cells in Ultraculture (Lonza, BE12-725F) supplemented with 1% glutamine (Invitrogen, 25030-024) for 18 hours. The media were assayed by two sandwich ELISAs, for Aβ42 and Aβtotal. Toxicity of the compounds was assayed by WST-1 cell proliferation reagent (Roche, 1 644 807) according to the manufacturer's protocol.
To quantify the amount of Aβtotal in the cell supernatant, samples and standards were added to a 6E10-coated plate. The plate was allowed to incubate overnight at 4° C. in order to allow formation of the antibody-amyloid complex. Following this incubation and subsequent wash steps a selective anti-AB-antibody conjugate (biotinylated 4G8) was added and incubated for a minimum of 1 hour in order to allow formation of the antibody-Amyloid-antibody-complex. After incubation and appropriate wash steps, a Streptavidine-Peroxidase-Conjugate was added, followed 30 minutes later by an addition of Quanta Blu fluorogenic peroxidase substrate according to the manufacturer's instructions (Pierce Corp., Rockford, Il).
(§6) To obtain the values reported in Table 3a, the sigmoidal dose response curves were analysed by computerised curve-fitting, with percent of inhibition plotted against compound concentration. A 4-parameter equation (model 205) in XLfit was used to determine the IC50. The top and the bottom of the curve were fixed to 100 and 0, respectively, and the hill slope was fixed to 1. The IC50 represents the concentration of a compound that is required for inhibiting a biological effect by 50% (Here, it is the concentration where Aβ peptide level is reduced by 50%).

[3] = tested on: Aβ42; assay: Method 2: Aβ42 Alphalisa on supernatant of SKNBE2 cells carrying APP 695 wild type; format: cell-based; conditions: Homo sapiens, SKNBE2 cells APP 695 wild type, overnight
Protocol: as §1, §2, §3, §4

[4] = tested on: Aβ42; assay: Method 1: Aβ42 sandwich ELISA on media of SKNBE2 cells carrying APP 695 wild type (γ-secretase-modulating activity); format: cell-based; conditions: Homo sapiens, SKNBE2 cells APP 695 wild type, 18 hours
Protocol: as §1, with “Gibco” for “Invitrogen”, “31330-38)” for “10371-029)”, “acids.” for “acids, 1-glutamine 2 mM, Hepes 15 mM, penicillin 50 U/ml (units/ml) en streptomycin 50 μg/ml.”
as §5
To quantify the amount of Aβ42 in the cell supernatant, commercially available Enzyme-Linked-Immunosorbent-Assay (ELISA) kits were used (Innotest® β-Amyloid(1-42), Innogenetics N.V., Ghent, Belgium). The Aβ42 ELISA was performed essentially according to the manufacturer's protocol. Briefly, the standards (dilutions of synthetic A131-42) were prepared in polypropylene Eppendorf with final concentrations of 8000 down to […] (½ dilution step). Samples, standards and blanks (100 μl) were added to the anti-Aβ42-coated plate supplied with the kit (the capture antibody selectively recognizes the C-terminal end of the antigen). The plate was allowed to incubate 3 h at 25° C. in order to allow formation of the antibody-amyloid complex. Following this incubation and subsequent wash steps a selective anti-A13-antibody conjugate (biotinylated 3D6) was added and incubated for a minimum of 1 hour in order to allow formation of the antibody-Amyloid-antibody-complex. After incubation and appropriate wash steps, a Streptavidine-Peroxidase-Conjugate was added, followed 30 minutes later by an addition of 3,3′,5,5′-tetramethylbenzidine (TMB)/peroxide mixture, resulting in the conversion of the substrate into a coloured product. This reaction was stopped by the addition of sulfuric acid (0.9 N) and the colour intensity was measured by means of photometry with an ELISA-reader with a 450 nm filter.
as §6

SMILES	melting point [°C]	IC50 [1] [µM]	IC50 [2] [µM]	IC50 [3] [µM]	IC50 [4] [µM]
COc1cccc(-n2nc3c(Nc4ccc(-c5cnn(C)c5)c(F)c4)cccc3c2C)c1 [Compound 7, N-[3-fluoro-4-(1-methyl-1H-pyrazol-4-yl)phenyl]-2-(3-methoxyphenyl)-3-methyl-2H-indazol-7-amine]	239.1	> 10	> 3	0.055	0.229
Cc1ncc(-c2ccc(Nc3cccc4c(CN)n(-c5ccc(F)cc5)nc34)cc2)o1 [Compound 8, 2-(4-fluorophenyl)-7-[[4-(2-methyl-5-oxazolyl)phenyl]amino]-2H-indazole-3-methanamine]	137	> 10	> 10	0.177	0.18
Cc1ncn(-c2ccc(Nc3cccc4c(C)n(CCCC(F)(F)F)nc34)cc2F)n1 [Compound 22, N-[3-fluoro-4-(3-methyl-1H-1,2,4-triazol-1-yl)phenyl]-3-methyl-2-(4,4,4-trifluorobutyl)-2H-indazol-7-amine]	135.6	> 3	> 3	> 3	> 3
Cc1ncn(-c2ccc(Nc3cccc4c(C)n(-c5ccc(F)cc5F)nc34)cc2F)n1 [Compound 23, 2-(2,4-difluorophenyl)-N-[3-fluoro-4-(3-methyl-1H-1,2,4-triazol-1-yl)phenyl]-3-methyl-2H-indazol-7-amine]	146.9	> 10	–	0.724	1.04
Cc1ncc(-c2ccc(Nc3cccc4c(C#N)n(-c5ccc(F)cc5)nc34)cc2)o1 [Compound 32, 2-(4-fluorophenyl)-7-[[4-(2-methyl-5-oxazolyl)phenyl]amino]-2H-indazole-3-carbonitrile]	237.9	> 3	> 3	> 3	2.13
Cc1ncc(-c2ccc(Nc3cccc4cn(-c5ccc6c(c5)OCO6)nc34)cc2)o1 [Compound 34, 2-(1,3-benzodioxol-5-yl)-N-[4-(2-methyl-5-oxazolyl)phenyl]-2H-indazol-7-amine]	175	> 10	–	0.479	0.359
COc1cccc(-n2nc3c(Nc4ccc(-c5cnc(C)o5)cc4)nccc3c2C)c1 [Compound 35, 2-(3-methoxyphenyl)-3-methyl-N-[4-(2-methyl-5-oxazolyl)phenyl]-2H-pyrazolo[3,4-c]pyridin-7-amine]	185	> 10	> 3	0.166	0.382
COc1cc(Nc2cccc3c(C)n(-c4ccc(F)cc4)nc23)ccc1-c1cnc(C)o1 [Compound 40, 2-(4-fluorophenyl)-N-[3-methoxy-4-(2-methyl-5-oxazolyl)phenyl]-3-methyl-2H-indazol-7-amine]	164.4	5.5	> 3	0.032	0.186
Cc1ncc(-c2ccc(Nc3cccc4cn(CC(F)(F)F)nc34)cn2)o1 [Compound 44, N-[6-(2-methyl-5-oxazolyl)-3-pyridinyl]-2-(2,2,2-trifluoroethyl)-2H-indazol-7-amine]	153.4	> 10	> 3	0.363	0.513
COc1nc(Nc2cc(C(C)C)nc3cn(CC(F)(F)F)nc23)ccc1-n1cnc(C)c1 [Compound 57, N-[6-methoxy-5-(4-methyl-1H-imidazol-1-yl)-2-pyridinyl]-5-(1-methylethyl)-2-(2,2,2-trifluoroethyl)-2H-pyrazolo[4,3-b]pyridin-7-amine]	172.5	1.66	–	0.107	–
